From patent publication US12517131B2, “Methods for labeling eukaryotic cells from a multicellular organism as well as for treating and/or diagnosing a cancer using modified monosaccharide compounds” (DIAMIDEX, priority 2019, dated 2026)

What was measured:
Assay type in all cases: cell-based
[1] = system: HME1 (immortalized cell lines); experiment: In vitro cytotoxicity of Ara-N3 probe (Annexin V/IP, MTS)
Experimental: (§1) The cell lines (as detailed below in the table) were provided by Inserm/Aquiderm transfer cell. Cell culture of cell lines and cell cytoxicity tests were also carried out by Aquiderm transfer cell, in the laboratory of INSERM U1035.
(§2) All the cells were seeded in culture plates, either in 96 wells at the density of 1*10^4 cells/well for the MTS proliferation test, either in 24 wells at the density of 5*10^4 cells/well for the Annexin V test/IP test. Then the cells were incubated at 37° C. and 5% CO2 for 24 hours. After 24 hours, the culture medium was changed in all the wells and the cells adhered to the bottom of the wells were rinsed twice in PBS (Eurobio) or centrifuged and washed twice in PBS for the cells in suspension, before being exposed to the Ara-N3 probe at different concentrations: 1, 10, 50 and 100 mM. The cells were incubated at 37° C. and 5% CO2 for 48 hours.
(§3) This test requires the use of an Annexin V-APC kit (Biolegend) for the detection of apoptosis/necrosis. This test uses the ability of Annexin V to bind to membrane phosphatidylserines (PS) and the intercalating properties of propidium iodide (PI) on DNA.
(§4) Briefly, after incubation of the cells with the Ara-N3 probe at different concentrations and at different times (24 h and 48 h), the cells were recovered, trypsinized (for adherent cells) and washed in PBS. After counting in trypan blue on the Malassez cell, the cells were incubated in a labeling buffer (100 μL) in the presence of Annexin V-APC (5 μL) and of IP (10 μL) for 15 minutes at room temperature and in the dark. They were then directly analyzed by cytometry after adding 100 μL of labeling buffer.
(§5) The non-toxic concentrations of Ara-N3 with respect to the tested cells are gathered in the following Table 5.

[2] = system: MDA MB231 (tumoral cell lines); experiment: as above
Experimental: as §1, §2, §3, §4, §5

[3] = system: MDA MB453 (tumoral cell lines); experiment: as above
Experimental: as §1, §2, §3, §4, §5

[4] = system: MDA MB175 (tumoral cell lines); experiment: as above
Experimental: as §1, §2, §3, §4, §5

[5] = system: human uroepithelial cells (SV-HUC-1); experiment: Labeling of bladder cells with Ara-N3 probe, copper-free click, fluorescence microscopy; conditions: 24 h, Ara-N3 10 mM
Experimental: The human uroepithelial cells (SV-HUC-1) and the human urinary bladder carcinoma (T24) were purchased from ATCC (Manassas, Van USA). These cell lines were grown in RPMI 1640 with Glutamine 1 medium (Lonza Biowhttaker) supplemented by 10% fetal bovine serum (FBS) (VWR international S.A.S). The culture medium was changed every two days. The passaging of cells was performed using Tryp-LE express 1× (Gibco). The cell viability was estimated using trypan blue exclusion tests.
SV-HUC-1 and T24 cells were seeded in 24-well plates, at density of 5*10^4 cells/well. Then, cells were incubated at 37° C., 5% in CO2 during 24 hours. Thereafter, the culture medium of each well was discarded, and attached cells were washed twice with Phosphate Buffer Salin (PBS) (Lonza Biowhittaker), before to be exposed to Ara-N3 probe (10 mM). Probe was added to culture medium with different FBS concentrations (3% and 10%). Then, cells were incubated at 37° C., 5% in CO2 for 24 hours again. The control cells were cultured using culture medium supplemented with 5% or 10% FBS, without addition of Ara-N3.
The fluorescence Assimilation of Ara-N3 probes was visualized by copper-free click chemistry using sulfo-DBCO-biotin (1 mM), followed by labeling with a mouse anti-biotin Alexa Fluor 488 antibody conjugate (0.62 mg/ml stock, Jackson ImmunoResearch, dilution 1/10). The click reaction was carry-out as following: At 24 h incubation times, the culture mediums were removed, and attached cells were washed twice with PBS. Cells were detached with Tryp-LE, washed twice with PBS, and centrifuged at 13000 g for 2 min. The cellular pellets were resuspended with 10 μL of sulfo-DBCO-biotin and incubated 30 min in the dark, and at 37 C°. Then, cells were washed twice with PBS, centrifuged, and cellular pellets were resuspended with 10 μL of a mouse anti-biotin antibody solution, before to be incubated at room temperature in dark. Thereafter, cells were washed twice with PBS and small cellular suspension spots (5 μL) were put in Polysine® adhesion slides (VWR international S.A.S), in the dark room, until dry (20 min). The spots were fixed with 4% paraformaldehyde during 20 min, in dark and room temperature. Slides were then washed twice with PBS, before recovering with square cover glasses (VWR international S.A.S) using glycerol Mounting Medium (Dako) and stored at 4° C. in dark room.
The fluorescence acquisition was recorded using Olympus Microscopy IX83 (Olympus Life Science) equipped with a 60×/1.3 […]/1.4 SRI (silicone refractive index) objective, and Hamamatsu oreca flash 4 LT camera with 109 nm/pixel calibrated pixel size. The excitation light was emitted by X-CITE 120LED using the AT180/30X excited filter and signal was monitored using AT535/40m emission filter. Green light exposition time was 600 ms and white light exposition time was determined by DIC methods at […]. The acquisition area size analyzed by the Celisens dimension V1.16 software was different depending on the cell number containing in the spot.
The images were processed using count and measure unit of the Cellsens dimension V1.16 software. The background noise was deleted as follows: ROI were first defined on the background of the image and the average pixel intensity was calculated. The value thus obtained was subtracted from all pixels of the image. The fluorescence intensity of each cell was determined from a threshold set at a value of 3030. All pixels that have intensity below 3030 were not counted.

[N-]=[N+]=NC[C@H]1OC(O)[C@@H](O)[C@@H]1O (stereo partly drawn) [Ara-N3, 5-azido-5-deoxy-D-arabinofuranose]
Non-toxic concentration of Ara-N3 [1]: >1 mM | Non-toxic concentration of Ara-N3 [2]: >1 mM | Non-toxic concentration of Ara-N3 [3]: >1 mM | Non-toxic concentration of Ara-N3 [4]: >1 mM | labelled cells %, SV-HUC1 % ([5]; Intensity/μm^2 0-50000, FBS 3%, n = 239): 62.34% | labelled cells %, SV-HUC1 % ([5]; Intensity/μm^2 0-50,000, FBS 10%, n = 301): 73.45% | labelled cells %, SV-HUC1 % ([5]; Intensity/μm^2 50,000-100,000, FBS 3%, n = 239): 2.51% | labelled cells %, SV-HUC1 % ([5]; Intensity/μm^2 50,000-100,000, FBS 10%, n = 301): 4.32% | labelled cells %, SV-HUC1 % ([5]; Intensity/μm^2 100,000-150,000, FBS 3%, n = 239): 2.09% | labelled cells %, SV-HUC1 % ([5]; Intensity/μm^2 100,000-150,000, FBS 10%, n = 301): 1.66% | labelled cells %, SV-HUC1 % ([5]; Intensity/μm^2 150,000-200,000, FBS 3%, n = 239): 1.26% | labelled cells %, SV-HUC1 % ([5]; Intensity/μm^2 150,000-200,000, FBS 10%, n = 301): 1.33% | labelled cells %, SV-HUC1 % ([5]; Intensity/μm^2 200,000-250,000, FBS 3%, n = 239): 1.67% | labelled cells %, SV-HUC1 % ([5]; Intensity/μm^2 200,000-250,000, FBS 10%, n = 301): 0.66% | labelled cells %, SV-HUC1 % ([5]; Intensity/μm^2 250,000-300,000, FBS 3%, n = 239): 3.77% | labelled cells %, SV-HUC1 % ([5]; Intensity/μm^2 250,000-300,000, FBS 10%, n = 301): 0.66% | labelled cells %, SV-HUC1 % ([5]; Intensity/μm^2 300,000-350,000, FBS 3%, n = 239): 0.42% | labelled cells %, SV-HUC1 % ([5]; Intensity/μm^2 300,000-350,000, FBS 10%, n = 301): 0.33% | labelled cells %, SV-HUC1 % ([5]; Intensity/μm^2 350,000-400,000, FBS 3%, n = 239): 0.42% | labelled cells %, SV-HUC1 % ([5]; Intensity/μm^2 350,000-400,000, FBS 10%, n = 301): 0.66% | labelled cells %, SV-HUC1 % ([5]; Intensity/μm^2 400,000-450,000, FBS 3%, n = 239): 0.84% | labelled cells %, SV-HUC1 % ([5]; Intensity/μm^2 400,000-450,000, FBS 10%, n = 301): 0.66% | labelled cells %, SV-HUC1 % ([5]; Intensity/μm^2 450,000-500,000, FBS 3%, n = 239): 2.93% | labelled cells %, SV-HUC1 % ([5]; Intensity/μm^2 450,000-500,000, FBS 10%, n = 301): 1.33% | labelled cells %, SV-HUC1 % ([5]; Intensity/μm^2 >500,000, FBS 3%, n = 239): 21.76% | labelled cells %, SV-HUC1 % ([5]; Intensity/μm^2 >500,000, FBS 10%, n = 301): 14.62%
